# Experimental data: PMC3188286 (Journal of Medicinal Chemistry, 2011)
# Legend:
# T. brucei TryR [1] = molecular target: T1, T. brucei TryR (Trypanosoma brucei brucei, UniProt P39051); assay: TryR enzyme assay; format: biochemical, Trypanosoma brucei brucei strain S427; conditions: for fold less active than 9a against TryR: vs 9a; for improvement in TryR potency with respect to ester 1c: vs 1c IC50 9.4 μM; for ligand efficiency: from T. brucei TryR IC50
# [2] = system: bloodstream form T. brucei brucei; assay: Resazurin fluorescence-based cell viability assay, T. brucei; set-up: species or system Trypanosoma brucei brucei
# T. brucei TryR [3] = molecular target: T1, T. brucei TryR; assay: Mode of inhibition studies; format: biochemical; conditions: for mode of inhibition: with respect to trypanothione disulfide
# [4] = Resazurin viability counter-screen, MRC5 cells; format: cell-based; conditions: human, MRC-5 cells
# T1 sequence (P39051 whole entry): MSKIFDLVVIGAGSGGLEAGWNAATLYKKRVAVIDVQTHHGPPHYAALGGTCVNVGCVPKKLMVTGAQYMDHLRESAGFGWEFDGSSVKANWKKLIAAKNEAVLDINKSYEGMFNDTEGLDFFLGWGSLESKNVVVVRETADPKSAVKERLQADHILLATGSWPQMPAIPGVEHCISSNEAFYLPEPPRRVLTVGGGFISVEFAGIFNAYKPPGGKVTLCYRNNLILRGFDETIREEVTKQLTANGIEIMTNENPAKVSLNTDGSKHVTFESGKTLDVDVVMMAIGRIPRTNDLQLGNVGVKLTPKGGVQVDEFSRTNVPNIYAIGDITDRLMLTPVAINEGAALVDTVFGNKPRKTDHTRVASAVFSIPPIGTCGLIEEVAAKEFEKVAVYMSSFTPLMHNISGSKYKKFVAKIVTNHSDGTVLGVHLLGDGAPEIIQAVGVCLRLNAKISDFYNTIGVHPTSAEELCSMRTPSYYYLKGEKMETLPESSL
compound,measurement,setting,value
COC(=O)CN1C(C)=Nc2ccc(Br)cc2C1c1ccccc1Cl (stereo not shown) [1d],TryR IC50,"T. brucei TryR [1]; recombinant T. brucei TryR, mean of at least two replicates",inactive
CC1=Nc2ccc(Cl)cc2C(C2CCCCC2)N1CCN1CCCCC1 (stereo not shown) [29f],fold less active than 9a against TryR,T. brucei TryR [1],15 fold
CC1=Nc2ccc(Cl)cc2C(c2ccccc2)N1Cc1cccc(N(C)C)c1 (stereo not shown) [6g],improvement in TryR potency with respect to ester 1c,T. brucei TryR [1],10 fold
"CC1=Nc2ccc(Cl)cc2C(c2ccccc2)N1Cc1ccccc1 (racemic) [6a, (R/S)-3-Benzyl-6-chloro-2-methyl-4-phenyl-3,4-dihydroquinazoline]",improvement in TryR potency with respect to ester 1c,T. brucei TryR [1],10 fold
CC1=Nc2ccc(Cl)cc2C(c2ccccc2)N1CCN1CCN(C)CC1 (stereo not shown) [9c],ligand efficiency,T. brucei TryR [1],0.31 kcal mol^–1 per non-H atom
same,improvement in TryR potency with respect to ester 1c,T. brucei TryR [1],10 fold
CCN1C(C)=Nc2ccc(Cl)cc2C1c1ccccc1 (stereo not shown) [6k],ligand efficiency,T. brucei TryR [1],> 0.3 kcal mol^–1 per non-H atom
"N=C(N)c1ccc(OCCCCCOc2ccc(C(=N)N)cc2)cc1 [Pentamidine, pentamidine, reference compound]",EC50,"[2]; Trypanosoma brucei, read-out: T. brucei EC50 (positive control)",5 nM
"CC1=Nc2ccc(Cl)cc2C(c2ccc(C)cc2)N1CCCN(C)C (stereo not shown) [29a, 3-(6-Chloro-2-methyl-4-p-tolylquinazolin-3(4H)-yl)-N,N-dimethylpropan-1-amine]",TryR Ki′,"T. brucei TryR [3]; mixed inhibition, enzyme–T[S]2 complex",1.46 µM
same,mode of inhibition,T. brucei TryR [3],linear mixed
same,ligand efficiency,T. brucei TryR [1],> 0.3 kcal mol^–1 per non-H atom
same,improvement in TryR potency cf. 9e,T. brucei TryR [1]; vs 9e IC50 1.0 μM,4 fold
"CC1=Nc2ccc(Cl)cc2C(c2ccccc2)N1CCN1CCCCC1 (racemic) [9a, (R/S)-6-Chloro-2-methyl-4-phenyl-3-(2-(piperidin-1-yl)ethyl)-3,4-dihydroquinazoline]",selectivity (MRC5 EC50/T. brucei EC50),"[2]; ratio, fold",11
COC(=O)CN1C(C)=Nc2ccc(Br)cc2C1c1ccccc1 (stereo not shown) [1a],EC50,[4],> 50 µM
same,Ki,T. brucei TryR [3],920 ± 60 nM
same,mode of inhibition,T. brucei TryR [3],linear competitive inhibitor
same,reduction in potency between biochemical (TryR IC50) and cell assay (T. brucei EC50),[2],> 5 fold
same,difference in activity between T. cruzi and T. brucei TryR,T. brucei TryR [1],< 3 fold
"CC1=Nc2ccc(-c3ccccc3)cc2C(c2ccccc2)N1CCN1CCCCC1 (racemic) [16a, (R/S)-2-Methyl-4,6-diphenyl-3-(2-(piperidin-1-yl)ethyl)-3,4-dihydroquinazoline]",fold more potent against T. brucei cells than against TryR,[2],10 fold
CC1=Nc2ccc(Cl)cc2C(c2ccccc2)N1CCN1CCN(C(=O)CN(C)C)CC1 (stereo not shown) [13h],mode of inhibition,T. brucei TryR [3],mixed mode of inhibition
COC(=O)CN1C(C)=Nc2ccc(C)cc2C1c1ccccc1 (stereo not shown) [1b],difference in activity between T. cruzi and T. brucei TryR,T. brucei TryR [1],< 3 fold
"CC1=Nc2ccc(Br)cc2C(c2ccccc2)N1CCN1CCCCC1 (stereo not shown) [15c, 6-bromo-2-methyl-4-phenyl-3-(2-(piperidin-1-yl)ethyl)-3,4-dihydroquinazoline]",fold more potent against TryR than C6-phenyl analogue 16a,T. brucei TryR [1],10 fold
CC1=Nc2ccc(-c3ccco3)cc2C(c2ccccc2)N1CCN1CCCCC1 (stereo not shown) [16c],"fold more potent against TryR than other C6-aryls (16a,b,e,f)",T. brucei TryR [1],5- to 10 fold
CC1=Nc2ccccc2C(c2ccccc2)N1CCN1CCCCC1 (stereo not shown) [15b],"fold less potent against T. brucei than C6-halogen analogues 9a, 15c, 15d",[2],~10 fold
CC1=Nc2ccc(Cl)cc2C(c2ccccc2)N1CCN1CCN(C(=O)c2ccco2)CC1 (stereo not shown) [13e],ligand efficiency,T. brucei TryR [1],0.27 kcal mol^–1 per non-H atom
same,improvement in TryR potency with respect to ester 1c,T. brucei TryR [1],22 fold
COc1cccc(C2c3cc(Cl)ccc3N=C(C)N2CCN2CCCCC2)c1 (stereo not shown) [29d],fold less active than 9a against TryR,T. brucei TryR [1],15 fold
CC1=Nc2ccc(Cl)cc2C(c2ccccc2)N1CCNC(=O)c1ccco1 (stereo not shown) [11e],mode of inhibition,T. brucei TryR [3],mixed mode of inhibition
same,improvement in TryR potency with respect to ester 1c,T. brucei TryR [1],11 fold
CC1=Nc2ccc(-c3ccsc3)cc2C(c2ccccc2)N1CCN1CCCCC1 (stereo not shown) [16d],"fold more potent against TryR than other C6-aryls (16a,b,e,f)",T. brucei TryR [1],5- to 10 fold
CC1=Nc2ccc(Cl)cc2C(c2ccccc2)N1Cc1ccccc1F (stereo not shown) [6d],improvement in TryR potency with respect to ester 1c,T. brucei TryR [1],10 fold
